In US20140106387A1, “METHOD FOR CONTROLLING NAD(P)/NAD(P)H RATIO BY OXIDOREDUCTASE” (MD BIOALPHA CO., LTD., priority 2006, published 2014):

Assays:
HepG2 cells = test: calcium influx (Fluo-4) in HepG2 cells; format: cell-based, human
Procedure: Cells were grown on a coverslip in a culture medium for 24 hours, maintained in an RPMI 1640 serum-free medium for 1 hour, and pretreated with a calcium indicator Fluo-4 (5 μM) for 30 min. After pretreatment, the coverslip was mounted on a slide glass. Changes in an intracellular calcium concentration were observed using a fluorescence microscope (Carl Zeiss) for 30 sec, and cells were treated with a candidate compound (e.g. pyran-1,2-naphthoquinone) simultaneously with consecutive imaging of calcium changes using a fluorescence microscope (Carl Zeiss) for 2 sec. […] Changes in the intracellular calcium concentration were observed using a fluorescence microscope (Carl Zeiss) for 30 sec, and cells were treated with pyre-1,2-naphthoquinone (10 μM), followed by continuous shooting of calcium changes using a fluorescence microscope for 2 sec. Using an LSM Image Browser program (Carl Zeiss), 300 images taken for 10 min every 2 seconds were sorted and ordered in a time sequence and plotted on a graph.
For determination of the inner mitochondrial membrane potential (ΔΨm), 20 nM of TMRE (tetramethylrhodamine ethyl ester) as a fluorescent indicator was continuously applied to be loaded on cells. In order to monitor mitochondrial Ca^2+, cells on glass coverslips were loaded with 10 μM Rhod-2 AM via cold loading/warm incubation. In order to monitor cytosolic Ca^2+, cells were co-loaded with 10 μM Fluo-4 AM at 37′C for 30 min. […] Images for TMRE (red fluorescence), Rhod-2 (red fluorescence) and Fluo-4 (green fluorescence) were obtained using an inverted Zeiss 510META laser-scanning confocal microscope equipped with ×63 numerical aperture, 1.4 oil-immersion planapochromat lens. Green fluorescence and red fluorescence were illuminated with light of 488 nm and 543 nm. […]
Cells were cultured for 24 hours and then pre-treated with Fluo-4 for 30 min. Cells immobilized on a coverslip were transferred to a slide glass and treated with pyrano-1,2-naphthoquinone (10 μM), and at the same time images were taken every 2 seconds for 10 min using a fluorescence microscope.

[1] = Respiratory Quotient and indirect calorimetry; format: in vivo, mouse
Procedure: O2 consumption of animals was recorded by a known method. For indirect calorimetry, mice were individually housed in calorimetry chambers (Oxymax OPTO-M3 system; Columbus Instruments, Columbus, Ohio). Animals were allowed to acclimate to a new environment for 48 hours prior to the experiment, and amounts of O2 consumption and CO2 production were measured for […] every 30 minutes. Mice were given free access to food and drinking water during the first 24 h period, and animals were given access to drinking water only during the second 24 h period. Blood samples were taken from a heparinized tube, immediately placed on ice, centrifuged and stored at −20[…] for future use. Enzymatic colorimetry was employed for quantification of triglyceride (TG), total cholesterol, free fatty acids, and glucose (Beckman Instruments, CA). Plasma insulin (Linco Research, MO), TNFα (R&D System), adiponectin (Linco Research, MO), resistin (KOMED) and leptin (Linco Research, MO) were quantified by ELISA.
This Example was intended to examine effects of pyran-1,2-naphthoquinone on fat metabolism via measurement of Respiratory Quotient (RQ). Oxygen consumption and carbon dioxide production were measured using an Oxyscan open-circuit indirect calorimeter (AccuScan Instruments, Columbus, Ohio). This apparatus consisted of enclosed acrylic chambers (21×21×21 cm). Fresh air was drawn into each chamber at a rate of 1500 mL/min and then O2 and CO2 were allowed to pass through detectors. The concentrations of the gases were recorded in mL/kg body weight/min. RQ was calculated as the volume of CO2 produced (VCO2) divided by the volume of O2 consumed (VO2). A pyrano-1,2-naphthoquinone-administered group, a vehicle-administered group and a control group were placed in each apparatus, and RQ was measured for 7 hours. For acclimation of the animals to the new environment, mice were placed in the apparatus 2 hours prior to measurement.

MN9X cells = test: intracellular ATP concentration in non-dopaminergic neuronal cells; format: cell-based; settings: 5 μM
Procedure: Dopaminergic (MN9D) and non-dopaminergic (MN9X) neuronal cells were treated with 5 μM pyran-1,2-naphthoquinone and the ATP concentration was periodically measured.

[2] = beta-oxidation assay: 14C-palmitic acid incorporated into liver triglyceride; format: in vivo, mouse; settings: DIO mice fed 50 mg/kg for 7 days; liver removed 10 min after 14C-palmitic acid IV
Procedure: The injection solution prepared in Section 1 was injected into tail veins of DIO mice at a dose of 10 microCi/150 μl/head, and the liver was removed 10 min later.
The removed liver was immediately and rapidly frozen in liquid nitrogen and weighed. A 5-fold weight of a 5 mM Tris-HCl buffer solution containing 0.25 M sucrose, 5 mM MgCl2, 1 mM mercaptoethanol and 0.5 mM EDTA was added to the liver tissues which were then homogenized. Equal amounts of each sample was taken and transferred to fresh 15 mL containers to which a 2.5-fold amount of C/M solution (chloroform:MetOH=2:1) was added, respectively. The mixtures were thoroughly mixed using a homogenizer for 2 min, centrifuged at 2500 rpm for 20 min to separate chloroform layers that were then transferred to fresh containers. The remaining materials were thoroughly mixed with 2-fold amounts of the C/M solution for 2 min, and centrifuged to separate chloroform layers. […] Then, more than 10-fold volumes of a toluene cocktail solution were added to chloroform layers of the vials and the mixtures were thoroughly mixed using a stirrer, and radioactivity was measured using a scintillation counter.
10 μCi of 14C-palmitic acid was IV-injected to a tail vein of mice and 10 min later the liver was removed and homogenized Fat was extracted from the homogenizate, and radioactivity was measured by a liquid scintillation counter.

[3] = mean body temperature after cold exposure; format: in vivo, mouse; settings: ambient temperature of 4 for 12 hours

CC1(C)CCC2=C(O1)c1ccccc1C(=O)C2=O [βL, 2,2-Dimethyl-3,4-dihydro-2H-benzo[h]chromene-5,6-dione]
cytosolic Ca2+ concentration ([Ca2+]c) and mitochondrial Ca2+ concentration ([Ca2+]m) (HepG2 cells; Fluo4 and Rhod-2-AM fluorescence, cells not given): increases
time of calcium peak after treatment (HepG2 cells; HepG2, 10 μM): about 10 sec
Respiratory Quotient (RQ) ([1]; measured for 7 hours, vs vehicle-administered and control group): significant difference in a RQ value
oxygen consumption (indirect calorimetry) ([1]; βL-treated mice): increases in night-time and day-time oxygen consumption
energy consumption ([1]; βL-treated mice vs control group): higher energy consumption
intracellular ATP concentration (MN9X cells): decreased
amount of 14C-palmitic acid incorporated into hepatic triglyceride (TG), lower than vehicle-treated mice [2]: about 45%
mean body temperature after cold exposure [3]: more resistant to the cold
